Test system: NCI-H929 complex spheroids, viability % test/control
Assay: Anticancer human tumor NCI-H929 cell line growth inhibition [RAS];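 note: compound exposure lasted seven days before viability was read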;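 for viability, T/C: 100% = DMSO vehicle control viability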
Settings: for IC50: curve of first compound; for viability, T/C: stronger effect = lower value
Summary of the method: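 Agents were tested in combination matrices in half-log decrements from a top concentration at or near clinical Cmax (10 microM if undetermined). Targets were multi-cell spheroids of tumour lines plus HUVEC and MSC stromal cells.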

[1] = second compound 0.000949 µM, first compound 0.00316 µM
[2] = second compound 0.000949 µM, first compound 0.01 µM
[3] = second compound 0.000949 µM, first compound 0.0316 µM
[4] = second compound 0.000949 µM, first compound 0.1 µM
[5] = second compound 0.003 µM, first compound 0.00316 µM
[6] = second compound 0.003 µM, first compound 0.01 µM
[7] = second compound 0.003 µM, first compound 0.0316 µM
[8] = second compound 0.003 µM, first compound 0.1 µM
[9] = second compound 0.00949 µM, first compound 0.00316 µM
[10] = second compound 0.00949 µM, first compound 0.01 µM
[11] = second compound 0.00949 µM, first compound 0.0316 µM
[12] = second compound 0.00949 µM, first compound 0.1 µM
[13] = second compound 0.03 µM, first compound 0.00316 µM
[14] = second compound 0.03 µM, first compound 0.01 µM
[15] = second compound 0.03 µM, first compound 0.0316 µM
[16] = second compound 0.03 µM, first compound 0.1 µM
[17] = second compound 0.0949 µM, first compound 0.00316 µM
[18] = second compound 0.0949 µM, first compound 0.01 µM
[19] = second compound 0.0949 µM, first compound 0.0316 µM
[20] = second compound 0.0949 µM, first compound 0.1 µM
[21] = second compound 0.3 µM, first compound 0.00316 µM
[22] = second compound 0.3 µM, first compound 0.01 µM
[23] = second compound 0.3 µM, first compound 0.0316 µM
[24] = second compound 0.3 µM, first compound 0.1 µM
[25] = second compound 0.000949 µM, first compound 0.316 µM
[26] = second compound 0.000949 µM, first compound 1 µM
[27] = second compound 0.003 µM, first compound 0.316 µM
[28] = second compound 0.003 µM, first compound 1 µM
[29] = second compound 0.00949 µM, first compound 0.316 µM
[30] = second compound 0.00949 µM, first compound 1 µM
[31] = second compound 0.03 µM, first compound 0.316 µM
[32] = second compound 0.03 µM, first compound 1 µM
[33] = second compound 0.0949 µM, first compound 0.316 µM
[34] = second compound 0.0949 µM, first compound 1 µM
[35] = second compound 0.3 µM, first compound 0.316 µM
[36] = second compound 0.3 µM, first compound 1 µM

CC(C)n1nc(-c2ccc3oc(N)nc3c2)c2c(N)ncnc21 + CCn1c(-c2cccnc2C(C)OC)c2c3cc(ccc31)N1CCOC(CC(NC(=O)C(C(C)C)N(C)C(=O)C3(F)CCN(C(=O)C#CC(C)(C)N(C)C)CC3)C(=O)N3CCCC(N3)C(=O)OCC(C)(C)C2)C1
IC50 (second compound 0.000949 µM): 0.0339 µM | IC50 (second compound 0.003 µM): 0.0388 µM | IC50 (second compound 0.00949 µM): 0.0394 µM | IC50 (second compound 0.03 µM): 0.0361 µM | IC50 (second compound 0.0949 µM): 0.0297 µM | IC50 (second compound 0.3 µM): 0.0271 µM | viability, T/C (second compound 0.000949 µM, first compound 0.000316 µM): 104% | viability, T/C (second compound 0.000949 µM, first compound 0.001 µM): 103% | viability, T/C [1]: 107% | viability, T/C [2]: 101% | viability, T/C [3]: 53.1% | viability, T/C [4]: 2.22% | viability, T/C (second compound 0.003 µM, first compound 0.000316 µM): 105% | viability, T/C (second compound 0.003 µM, first compound 0.001 µM): 107% | viability, T/C [5]: 105% | viability, T/C [6]: 98.5% | viability, T/C [7]: 60.3% | viability, T/C [8]: 2.31% | viability, T/C (second compound 0.00949 µM, first compound 0.000316 µM): 101% | viability, T/C (second compound 0.00949 µM, first compound 0.001 µM): 105% | viability, T/C [9]: 106% | viability, T/C [10]: 99.8% | viability, T/C [11]: 61.4% | viability, T/C [12]: 1.89% | viability, T/C (second compound 0.03 µM, first compound 0.000316 µM): 97.8% | viability, T/C (second compound 0.03 µM, first compound 0.001 µM): 104% | viability, T/C [13]: 106% | viability, T/C [14]: 100% | viability, T/C [15]: 56.2% | viability, T/C [16]: 1.72% | viability, T/C (second compound 0.0949 µM, first compound 0.000316 µM): 98.7% | viability, T/C (second compound 0.0949 µM, first compound 0.001 µM): 108% | viability, T/C [17]: 108% | viability, T/C [18]: 100% | viability, T/C [19]: 47.2% | viability, T/C [20]: 1.3% | viability, T/C (second compound 0.3 µM, first compound 0.000316 µM): 102% | viability, T/C (second compound 0.3 µM, first compound 0.001 µM): 107% | viability, T/C [21]: 108% | viability, T/C [22]: 99.5% | viability, T/C [23]: 42.4% | viability, T/C [24]: 1.08%

CCN1CCN(Cc2ccc(Nc3ncc(F)c(-c4cc(F)c5nc(C)n(C(C)C)c5c4)n3)nc2)CC1 + CCn1c(-c2cccnc2C(C)OC)c2c3cc(ccc31)N1CCOC(CC(NC(=O)C(C(C)C)N(C)C(=O)C3(F)CCN(C(=O)C#CC(C)(C)N(C)C)CC3)C(=O)N3CCCC(N3)C(=O)OCC(C)(C)C2)C1
IC50 (second compound 0.000949 µM): 0.776 µM | IC50 (second compound 0.003 µM): 0.746 µM | IC50 (second compound 0.00949 µM): 0.814 µM | IC50 (second compound 0.03 µM): 0.734 µM | IC50 (second compound 0.0949 µM): 0.662 µM | IC50 (second compound 0.3 µM): 0.619 µM | viability, T/C [1]: 105% | viability, T/C [2]: 97.9% | viability, T/C [3]: 105% | viability, T/C [4]: 101% | viability, T/C [25]: 104% | viability, T/C [26]: 35.1% | viability, T/C [5]: 103% | viability, T/C [6]: 101% | viability, T/C [7]: 103% | viability, T/C [8]: 105% | viability, T/C [27]: 106% | viability, T/C [28]: 31.7% | viability, T/C [9]: 96.8% | viability, T/C [10]: 104% | viability, T/C [11]: 99.9% | viability, T/C [12]: 104% | viability, T/C [29]: 107% | viability, T/C [30]: 38.6% | viability, T/C [13]: 97.4% | viability, T/C [14]: 101% | viability, T/C [15]: 106% | viability, T/C [16]: 101% | viability, T/C [31]: 108% | viability, T/C [32]: 30.8% | viability, T/C [17]: 99.4% | viability, T/C [18]: 99.5% | viability, T/C [19]: 102% | viability, T/C [20]: 103% | viability, T/C [33]: 104% | viability, T/C [34]: 21.2% | viability, T/C [21]: 98.7% | viability, T/C [22]: 104% | viability, T/C [23]: 105% | viability, T/C [24]: 106% | viability, T/C [35]: 109% | viability, T/C [36]: 11.2%

C[C@@H](NC(=O)c1ncnc(N)c1Cl)c1ncc(C(=O)Nc2cc(C(F)(F)F)c(Cl)cn2)s1 + CCn1c(-c2cccnc2C(C)OC)c2c3cc(ccc31)N1CCOC(CC(NC(=O)C(C(C)C)N(C)C(=O)C3(F)CCN(C(=O)C#CC(C)(C)N(C)C)CC3)C(=O)N3CCCC(N3)C(=O)OCC(C)(C)C2)C1
IC50 (second compound 0.000949 µM): > 10 µM | IC50 (second compound 0.003 µM): > 10 µM | IC50 (second compound 0.00949 µM): > 10 µM | IC50 (second compound 0.03 µM): > 10 µM | IC50 (second compound 0.0949 µM): > 10 µM | IC50 (second compound 0.3 µM): > 10 µM | viability, T/C [3]: 109% | viability, T/C [4]: 101% | viability, T/C [25]: 105% | viability, T/C [26]: 94.4% | viability, T/C (second compound 0.000949 µM, first compound 3.16 µM): 98.9% | viability, T/C (second compound 0.000949 µM, first compound 10 µM): 103% | viability, T/C [7]: 103% | viability, T/C [8]: 107% | viability, T/C [27]: 99.3% | viability, T/C [28]: 93.1% | viability, T/C (second compound 0.003 µM, first compound 3.16 µM): 100% | viability, T/C (second compound 0.003 µM, first compound 10 µM): 104% | viability, T/C [11]: 99.7% | viability, T/C [12]: 102% | viability, T/C [29]: 102% | viability, T/C [30]: 92.3% | viability, T/C (second compound 0.00949 µM, first compound 3.16 µM): 102% | viability, T/C (second compound 0.00949 µM, first compound 10 µM): 104% | viability, T/C [15]: 98.8% | viability, T/C [16]: 105% | viability, T/C [31]: 99.1% | viability, T/C [32]: 92.6% | viability, T/C (second compound 0.03 µM, first compound 3.16 µM): 101% | viability, T/C (second compound 0.03 µM, first compound 10 µM): 104% | viability, T/C [19]: 104% | viability, T/C [20]: 101% | viability, T/C [33]: 94.8% | viability, T/C [34]: 92.3% | viability, T/C (second compound 0.0949 µM, first compound 3.16 µM): 96.2% | viability, T/C (second compound 0.0949 µM, first compound 10 µM): 105% | viability, T/C [23]: 106% | viability, T/C [24]: 105% | viability, T/C [35]: 102% | viability, T/C [36]: 87.4% | viability, T/C (second compound 0.3 µM, first compound 3.16 µM): 92.5% | viability, T/C (second compound 0.3 µM, first compound 10 µM): 107%

From PubChem BioAssay AID2060884 (Molecular Pharmacology Branch, DTP, NCI, 2025)
